Patent US20260207654A1, “HEPARAN SULFATE AND ITS MIMETICS AS CHEMOKINE INHIBITORS” (INDIAN INSTITUTE OF SCIENCE EDUCATION AND RESEARCH, priority 2021, published 2026)

Experiments:
[1] = molecular target: CCL13 (Homo sapiens, UniProt Q99616); assay: Chemokine glycan microarray binding assay; settings: maximum RFU set as 100% binding, average across 2 glycan concentrations and 3 chemokine dilutions (n=6)
Method in brief: (§1)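 Read-out is Cy3 fluorescence (RFU) of chemokine bound to covalently arrayed glycans, converted to rank against the block's maximum signal and averaged over three chemokine dilutions. Binding ran 2 h at room temperature in PBS pH 7.3 containing 1% ovalbumin; detection used a biotinylated secondary antibody and Cy3-streptavidin.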

[2] = molecular target: T1, CCL2 (Homo sapiens, UniProt P13500); assay: Chemokine glycan microarray binding assay; settings: maximum RFU set as 100% binding, average across 2 glycan concentrations and 3 chemokine dilutions (n=6)
T1 sequence (P13500 24-99, species assumed): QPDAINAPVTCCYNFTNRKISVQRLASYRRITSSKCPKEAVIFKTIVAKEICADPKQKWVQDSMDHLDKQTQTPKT
Method in brief: as §1

[3] = molecular target: T2, CCL21 (Homo sapiens, UniProt O00585); assay: Chemokine glycan microarray binding assay; settings: maximum RFU set as 100% binding, average across 2 glycan concentrations and 3 chemokine dilutions (n=6)
T2 sequence (O00585 24-134): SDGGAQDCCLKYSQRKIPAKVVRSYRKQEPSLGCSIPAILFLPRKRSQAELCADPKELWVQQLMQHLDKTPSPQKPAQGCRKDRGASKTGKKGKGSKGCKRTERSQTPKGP
Method in brief: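 Ranking data come from glycan microarrays probed with chemokines at three dilutions and detected by Cy3 fluorescence. Per block, the strongest signal set 100% binding, and average rank with SEM was calculated for every glycan.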

[4] = molecular target: T3, CCL28 (Homo sapiens, UniProt Q9NRJ3); assay: Chemokine glycan microarray binding assay; settings: maximum RFU set as 100% binding, average across 2 glycan concentrations and 3 chemokine dilutions (n=6)
T3 sequence (Q9NRJ3 20-127): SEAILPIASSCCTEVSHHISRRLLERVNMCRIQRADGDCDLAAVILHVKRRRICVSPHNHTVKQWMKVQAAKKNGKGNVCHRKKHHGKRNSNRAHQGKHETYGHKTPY
Method in brief: as §1

[5] = molecular target: T4, CCL5 (Homo sapiens, UniProt P13501); assay: Chemokine glycan microarray binding assay; settings: maximum RFU set as 100% binding, average across 2 glycan concentrations and 3 chemokine dilutions (n=6)
T4 sequence (P13501 24-91): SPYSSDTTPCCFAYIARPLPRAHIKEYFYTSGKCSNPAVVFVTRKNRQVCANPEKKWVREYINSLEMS
Method in brief: as §1

[6] = molecular target: T5, CCL7 (Homo sapiens, UniProt P80098); assay: Chemokine glycan microarray binding assay; settings: maximum RFU set as 100% binding, average across 2 glycan concentrations and 3 chemokine dilutions (n=6)
T5 sequence (P80098 24-99, species assumed): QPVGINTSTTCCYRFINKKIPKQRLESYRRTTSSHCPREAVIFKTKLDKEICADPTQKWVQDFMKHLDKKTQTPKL
Method in brief: as §1

[7] = molecular target: T6, CXCL10 (Homo sapiens, UniProt P02778); assay: Chemokine glycan microarray binding assay; settings: maximum RFU set as 100% binding, average across 2 glycan concentrations and 3 chemokine dilutions (n=6)
T6 sequence (P02778 22-98): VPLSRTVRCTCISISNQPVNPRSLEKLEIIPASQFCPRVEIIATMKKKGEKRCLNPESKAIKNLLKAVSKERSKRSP
Method in brief: as §1

[8] = molecular target: T7, CXCL12 (Homo sapiens, UniProt P48061); assay: Chemokine glycan microarray binding assay; settings: maximum RFU set as 100% binding, average across 2 glycan concentrations and 3 chemokine dilutions (n=6)
T7 sequence (P48061 22-93, species assumed): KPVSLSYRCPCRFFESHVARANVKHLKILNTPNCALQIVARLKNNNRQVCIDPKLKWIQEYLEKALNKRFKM
Method in brief: as §1

[9] = molecular target: T8, CXCL8 (Homo sapiens, UniProt P10145); assay: Chemokine glycan microarray binding assay; settings: maximum RFU set as 100% binding, average across 2 glycan concentrations and 3 chemokine dilutions (n=6)
T8 sequence (P10145 21-99): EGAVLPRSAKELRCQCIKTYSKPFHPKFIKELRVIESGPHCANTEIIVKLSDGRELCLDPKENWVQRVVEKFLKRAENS
Method in brief: as §1

[10] = molecular target: T1, CCL2; assay: Surface Plasmon Resonance (SPR) binding kinetics; settings: compound immobilized on CM5 chip, 25° C., 1:1 model
Experimental: (§2) FIG. 1: SPR analysis of chemokines binding profile for the compounds of present invention: SPR binding analysis of the interaction between the examples 12, 17, and 19, chemokines were reported, Concentrations of chemokines were 0.05-2 μM. A global fit according to a 1:1 binding model was applied (black curves).
(§3) Surface Plasmon Resonance (SPR) binding kinetics The compound of present invention (test compound, Example 12) was covalently immobilized on sensor chip via coupling reaction. At first, the dextran matrix on CM5 chip was activated with NHS (0.02 M) and EDC coupling reagent (0.2 M) at a flow rate of 5 μL min^−1 for 15 min before activating with 50 μL of test compound (0.5 mM) in HBS-EP buffer. In the negative control cell after EDC and NHS activation, 0.5 mM of ethanol amine solution was flowed. The positive RU response on test compound confirmed immobilization of the HS ligand on CM5 chips. Then, different chemokines at a flow rate of 50 μL/min and 25° C. in HBS-EP buffer without growth factor was then flowed over the sensor surface for 3 min to enable association/dissociation. Kinetic analysis was performed using the BIA evaluation software for T100. Association and dissociation phase data were globally fitted to a simple 1:1 interaction model.
(§4) Table 2: SPR analysis of kinetic rate constants and equilibrium affinities of compounds of present invention binding to chemokines
as §3, with “The” for “Surface Plasmon Resonance (SPR) binding kinetics The”, “12, 17 & 18)” for “12)”

[11] = molecular target: T4, CCL5; assay: Surface Plasmon Resonance (SPR) binding kinetics; settings: compound immobilized on CM5 chip, 25° C., 1:1 model
Experimental: as §2, §3, §4
as §3, with “The” for “Surface Plasmon Resonance (SPR) binding kinetics The”, “12, 17 & 18)” for “12)”

[12] = molecular target: T5, CCL7; assay: Surface Plasmon Resonance (SPR) binding kinetics; settings: compound immobilized on CM5 chip, 25° C., 1:1 model
Experimental: as §2, §3, §4
as §3, with “The” for “Surface Plasmon Resonance (SPR) binding kinetics The”, “12, 17 & 18)” for “12)”

[13] = molecular target: T6, CXCL10; assay: Surface Plasmon Resonance (SPR) binding kinetics; settings: compound immobilized on CM5 chip, 25° C., 1:1 model
Experimental: as §2, §3, §4
as §3, with “The” for “Surface Plasmon Resonance (SPR) binding kinetics The”, “12, 17 & 18)” for “12)”

[14] = molecular target: T8, CXCL8; assay: Surface Plasmon Resonance (SPR) binding kinetics; settings: compound immobilized on CM5 chip, 25° C., 1:1 model
Experimental: as §2, §3, §4
as §3, with “The” for “Surface Plasmon Resonance (SPR) binding kinetics The”, “12, 17 & 18)” for “12)”

[15] = molecular target: T7, CXCL12; assay: Surface Plasmon Resonance (SPR) binding kinetics; settings: compound immobilized on CM5 chip, 25° C., 1:1 model
Experimental: as §2, §3, §4
as §3, with “The” for “Surface Plasmon Resonance (SPR) binding kinetics The”, “12, 17 & 18)” for “12)”

Chain of CCL13 (Q99616 17-98, species assumed): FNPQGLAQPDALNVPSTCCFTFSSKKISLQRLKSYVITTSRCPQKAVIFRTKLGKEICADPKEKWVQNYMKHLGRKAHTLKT

NCCCO[C@@H]1OC(C(=O)O)[C@@H](O[C@H]2OC(COS(=O)(=O)O)[C@@H](O[C@@H]3OC(C(=O)O)[C@@H](O[C@H]4OC(COS(=O)(=O)O)[C@@H](O)C(O)C4N)C(O)C3OS(=O)(=O)O)C(O)C2N)C(O)C1OS(=O)(=O)O (stereo partly drawn) [Example 19, 3-Aminopropyl-O-[(2-amino-6-O-sulfonato-2-deoxy-α-D-glucopyranosyl)-(1→4)-O-(2-O-sulfonato-α-L-idopyranosyluronate)-(1→4)-O-(2-amino-6-O-sulfonato-2-deoxy-α-D-glucopyranosyl)]-(1→4)-O-2-O-sulfonato-α-L-idopyranosiduronate]
mean rank binding to CCL13 [1]: 74%
mean rank binding to CCL2 [2]: 80%
mean rank binding to CCL21 [3]: 66%
mean rank binding to CCL28 [4]: 79%
mean rank binding to CCL5 [5]: 95%
mean rank binding to CCL7 [6]: 91%
mean rank binding to CXCL10 [7]: 89%
mean rank binding to CXCL12 [8]: 79%
mean rank binding to CXCL8 [9]: 79%
Kd [10]: 9.82 ± 0.18 µM
Koff [10]: 2.03 ± 0.17 × 10^−1 S^−1
Kon [10]: 2.07 ± 0.13 × 10^4 M^−1S^−1
Koff [11]: 2.14 ± 0.48 × 10^−1 S^−1
Kon [11]: 9.15 ± 0.34 × 10^4 M^−1S^−1
Kd [12]: 11.5 ± 0.17 µM
Koff [12]: 2.25 ± 0.29 × 10^−1 S^−1
Kon [12]: 1.96 ± 0.22 × 10^4 M^−1S^−1
Kd [13]: 10.7 ± 0.37 µM
Koff [13]: 2.24 ± 0.35 × 10^−1 S^−1
Kon [13]: 2.07 ± 0.26 × 10^4 M^−1S^−1
Kd [14]: 15.9 ± 0.23 µM
Koff [14]: 1.96 ± 0.29 × 10^−1 S^−1
Kon [14]: 1.23 ± 0.17 × 10^4 M^−1S^−1

NCCOCCO[C@@H]1O[C@@H](C(=O)O)[C@@H](O[C@@H]2O[C@@H](C(=O)O)[C@@H](O[C@@H]3O[C@@H](C(=O)O)[C@@H](O[C@@H]4O[C@@H](C(=O)O)[C@@H](OS(=O)(=O)O)[C@H](O)[C@H]4OS(=O)(=O)O)[C@H](O)[C@H]3OS(=O)(=O)O)[C@H](O)[C@H]2OS(=O)(=O)O)[C@H](O)[C@H]1OS(=O)(=O)O [Example 12, Ethoxy-2-aminoethoxyl-O-((2-4-O-disulfonato)-α-L-idopyranosyl Uronic Acid-α(1->4)(2-O-sulfonato)-α-L-idopyranosyl Uronic Acid-α(1→4)(2-O-sulfonato)-α-L-idopyranosyl Uronic Acid-α(1→4)(2-O-sulfonato))-α-L-idopyranoside Uronic Acid]
mean rank binding to CCL13 [1]: 70%
mean rank binding to CCL2 [2]: 88%
mean rank binding to CCL21 [3]: 50%
mean rank binding to CCL28 [4]: 72%
mean rank binding to CCL5 [5]: 91%
mean rank binding to CCL7 [6]: 80%
mean rank binding to CXCL10 [7]: 87%
mean rank binding to CXCL12 [8]: 91%
mean rank binding to CXCL8 [9]: 96%
Kd [10]: 1.67 ± 0.3 µM
Koff [10]: 2.1 ± 0.5 × 10^−1 S^−1
Kon [10]: 1.26 ± 0.08 × 10^5 M^−1S^−1
Kd [11]: 5.72 ± 0.24 µM
Koff [11]: 2.4 ± 0.38 × 10^−1 S^−1
Kon [11]: 4.2 ± 0.46 × 10^4 M^−1S^−1
Kd [13]: 15.3 ± 0.21 µM
Koff [13]: 2.2 ± 0.38 × 10^−1 S^−1
Kon [13]: 1.44 ± 0.46 × 10^4 M^−1S^−1
Kd [15]: 18.8 ± 0.44 µM
Koff [15]: 2.1 ± 0.78 × 10^−1 S^−1
Kon [15]: 1.1 ± 0.46 × 10^4 M^−1S^−1
Kd [14]: 9.34 ± 0.21 µM
Koff [14]: 2.96 ± 0.1 × 10^−1 S^−1
Kon [14]: 3.16 ± 0.08 × 10^5 M^−1S^−1

NCCCO[C@@H]1O[C@@H](C(=O)O)[C@@H](O[C@H]2O[C@H](COS(=O)(=O)O)[C@@H](O[C@@H]3O[C@@H](C(=O)O)[C@@H](O[C@H]4O[C@H](COS(=O)(=O)O)[C@@H](O)[C@H](OS(=O)(=O)O)[C@H]4N)[C@H](O)[C@H]3O)[C@H](OS(=O)(=O)O)[C@H]2N)[C@H](O)[C@H]1O [Example 17, 3-Aminopropyl-O-[(2-amino-6-O-sulfonato-3-O-sulfonato-2-deoxy-α-D-glucopyranosyl)-(1→4)-O-(α-L-idopyranosyluronate)-(1→4)-O-(2-amino-6-O-sulfonato-3-O-sulfonato-2-deoxy-α-D-glucopyranosyl)]-(1→4)-O-α-L-idopyranosiduronate]
mean rank binding to CCL13 [1]: 69%
mean rank binding to CCL2 [2]: 95%
mean rank binding to CCL21 [3]: 73%
mean rank binding to CCL28 [4]: 54%
mean rank binding to CCL5 [5]: 82%
mean rank binding to CCL7 [6]: 89%
mean rank binding to CXCL10 [7]: 96%
mean rank binding to CXCL12 [8]: 80%
mean rank binding to CXCL8 [9]: 94%
Koff [10]: 2.11 ± 0.34 × 10^−1 S^−1
Kon [10]: 11.17 ± 0.32 × 10^4 M^−1S^−1
Kd [11]: 6.81 ± 0.33 µM
Koff [11]: 2.98 ± 0.31 × 10^−1 S^−1
Kon [11]: 4.37 ± 0.31 × 10^4 M^−1S^−1
Kd [12]: 11.3 ± 0.18 µM
Koff [12]: 2.86 ± 0.21 × 10^−1 S^−1
Kon [12]: 2.53 ± 0.15 × 10^4 M^−1S^−1
Kd [13]: 11 ± 0.37 µM
Koff [13]: 1.69 ± 0.33 × 10^−1 S^−1
Kon [13]: 1.53 ± 0.26 × 10^4 M^−1S^−1
Kd [14]: 11.7 ± 0.17 µM
Koff [14]: 2.18 ± 0.28 × 10^−1 S^−1
Kon [14]: 1.87 ± 0.22 × 10^4 M^−1S^−1
